How the values were obtained:
[1] = Octreotide prophylaxis of irinotecan-induced diarrhea in patients receiving irinotecan; type: in vivo; settings: octreotide prophylactic treatment before or concurrent with irinotecan; octreotide acetate long-acting release formulation 10, 20 or 30 mg
Description: In the prophylaxis of diarrhea according to the invention, octreotide may be administered simultaneously with irinotecan, or the compounds may be administered sequentially, in any desired order. Preferably octreotide is administered some days before the first irinotecan administration and subsequent octreotide administrations are before or simultaneous with irinotecan administration, the time of administration (dosing intervals) of octreotide depending on the preferred irinotecan-scheduled regimen. In a preferred embodiment of the present invention, octreotide acetate long-acting release formulation is administered 10-14 days prior to the first irinotecan dose. For example, when irinotecan is administered in a planned 6-week cycle, wherein irinotecan is given intravenously as a single-agent or in combination with other antineoplastic agents such as, e.g., cisplatin, 5-fluoruracil or others, over 30-90 minutes once weekly for 4 weeks followed by a 2-week rest period, octreotide acetate long-acting release formulation may be administered prior to the first irinotecan dose and again on Day 15 or Day 22 of this 6-week cycle. The octreotide acetate long-acting release formulation dosage is 10 mg, 20 mg or 30 mg at the time of each octreotide administration. […]

[2] = prophylaxis against chemotherapy-induced diarrhea; cited from earlier work
[3] = cited from earlier work
[4] = patients who experienced this side-effect during a previous course of chemotherapy; cited from earlier work
[5] = intensive, immediate application once diarrhea has started; cited from earlier work

SMILES | severity and duration of diarrhea [1] | prevention of diarrhea associated with 5-fluorouracil plus leucovorin [2] | treatment of 5-fluorouracil-induced diarrhea ([3]; Meropol et al. 1998) | efficacy in therapy of 5-fluorouracil-induced diarrhea, compared with loperamide ([3]; randomized trial comparing octreotide with loperamide) | prevention of diarrhea associated with cisplatin [4] | frequency of diarrhea [5] | severity of diarrhea [5]
C[C@@H](O)[C@@H]1NC(=O)[C@H](CCCCN)NC(=O)[C@@H](Cc2c[nH]c3ccccc23)NC(=O)[C@H](Cc2ccccc2)NC(=O)[C@@H](NC(=O)[C@H](N)Cc2ccccc2)CSSC[C@@H](C(=O)N[C@H](CO)[C@@H](C)O)NC1=O (relative stereo) [octreotide, L-cysteinamide,D-phenylalanyl-L-cysteinyl-L-phenylalanyl-D-tryptophyl-L-lysyl-L-threonyl-N-[2-hydro-1-hydroxymethyl) propyl]-, cyclic (2→7)-disulfide; [R-(R*,R*)]] | avoids or remarkably limits the severity and duration of diarrhea in many cases | does not prevent diarrhea | successful in the treatment of 5-fluorouracil-induced diarrhea | more effective than loperamide | active in preventing diarrhea | – | –
CN(C)C(=O)C(CCN1CCC(O)(c2ccc(Cl)cc2)CC1)(c1ccccc1)c1ccccc1 [loperamide] | – | – | – | – | – | had not reduced the frequency of diarrhea | often successful in reducing the severity of diarrhea

Reference: patent publication US6395708B1, “Method for preventing diarrhea” (Novartis, A.G., priority 1999, dated 2002)
